The text below walks through data of patent US20210246115A1 (Bioimics AB, priority 2017, published 2021).

In assay [1] the test system is E. coli RNase P RNA, M1 RNA. Description: Inhibition of bacterial RNase P activity, IC50 determination (cleavage of pATSerUG by M1 RNA). Particulars: NI: No inhibition. The format is biochemical.
Assay [2] deals with S. aureus USA300 MRSA BAA-1717. Kind of assay: MIC, S. aureus USA300 MRSA BAA-1717. Type of assay: cell-based. Particulars: Staphylococcus aureus; Table XIV A. Gram-positive bacteria; read-out: S. aureus USA300 MRSA BAA-1717 MIC.
Assay [3] concerns E. coli JW5503 (efflux defective). Kind of assay: MIC, E. coli JW5503 (efflux defective). Type of assay: cell-based. The conditions noted are these: Escherichia coli, read-out: E. coli JW5503 (efflux defective) MIC.
Assay [4] concerns A. baumannii ATCC 17978. Description: MIC, A. baumannii ATCC 17978. Type of assay: cell-based. Particulars: Acinetobacter baumannii, ATCC17978; Table XIV B. Gram-negative bacteria.
Assay [5] has as its system Staphylococcus aureus subsp. aureus (ATCC29213). Kind of assay: MIC, broth microdilution (CLSI), Staphylococcus aureus ATCC29213. Type of assay: cell-based. The conditions noted are these: Staphylococcus aureus, read-out: S. aureus ATCC 29213 MIC. In general terms: Dilution methods test growth across graded concentrations, often in twofold steps.
Assay [6] deals with P. aeruginosa NTUH974 (MDR). Description: MIC, P. aeruginosa NTUH974 (MDR). Type of assay: cell-based. Particulars: Pseudomonas aeruginosa; Table XIV B. Gram-negative bacteria; read-out: P. aeruginosa NTUH974 (MDR) MIC.
Assay [7] deals with H. influenzae ATCC 49247. Kind of assay: MIC, H. influenzae ATCC 49247. Type of assay: cell-based. Particulars: Haemophilus influenzae, ATCC49247; Table XIV B. Gram-negative bacteria.
Assay [8] concerns S. aureus MRSA ATCC 33591. Kind of assay: MIC, S. aureus MRSA ATCC 33591. The format is cell-based. The conditions noted are these: Staphylococcus aureus; Table XIV A. Gram-positive bacteria; read-out: S. aureus MRSA ATCC 33591 MIC.
For assay [9], the system named is K. pneumoniae ATCC 43816. Description: MIC, K. pneumoniae ATCC 43816. The format is cell-based. Particulars: Klebsiella pneumoniae, ATCC43816; Table XIV B. Gram-negative bacteria.
In assay [10] the test system is M. phlei ATCC 11758. Description: MIC, M. phlei ATCC 11758. Type of assay: cell-based. Particulars: Mycolicibacterium phlei, ATCC11758; Table XIV A. Gram-positive bacteria.
Assay [11] has as its system Escherichia coli (ATCC25922). Description: MIC, broth microdilution (CLSI), Escherichia coli. The conditions noted are these: for MIC: Escherichia coli.
Method: Initial minimal inhibitory concentration (MIC) tests were made on two bacterial strains: • Escherichia coli (ATCC25922) • Staphylococcus aureus (ATCC25923).
MIC values were determined using the standard broth microdilution procedure based on the guidelines by the Clinical and Laboratory Standards Institute (CLSI). Briefly, the compounds were dissolved in DMSO to 10 mM. They were diluted in cation-adjusted Mueller-Hinton broth (CAMHB) to four times the highest concentration tested. A serial two-fold dilution in CAMHB was done in microdilution plates. The inoculum of bacterial strain to be tested was prepared by making a suspension of colonies from an 18 to 24 hours old plate in CAMHB. The inoculum was diluted so that, after inoculation, each well contained approximately 5×10^5 CFU/mL. To a volume of 50 μl compound in CA 3 an equal volume of inoculum was added. The tray was sealed in a plastic bag and incubated at 35° C. for 16 to 20 hours. To aid in the detection of growth the dye resazurin was added to a final concentration 0.001% and incubated at room temperature for 1 h. Reduction of resazurin, and therefore bacterial growth, was seen as a change from blue to pink.
The subject of assay [12] is Staphylococcus aureus (ATCC25923). Kind of assay: MIC, broth microdilution (CLSI), Staphylococcus aureus ATCC25923. The conditions noted are these: for MIC: Staphylococcus aureus, ATCC25923, read-out: S. aureus ATCC 25923 MIC.
The subject of assay [13] is S. pneumoniae ATCC 49619. Description: MIC, S. pneumoniae ATCC 49619. The format is cell-based. Particulars: Streptococcus pneumoniae, ATCC49619; Table XIV A. Gram-positive bacteria.
For assay [14], the system named is E. faecium ATCC 700221. Kind of assay: MIC, E. faecium ATCC 700221. The format is cell-based. The conditions noted are these: Enterococcus faecium, ATCC700221; Table XIV A. Gram-positive bacteria; read-out: E. faecium ATCC 700221 MIC.
Assay [15] concerns Enterococcus faecalis (ATCC29212). Kind of assay: MIC, broth microdilution (CLSI), Enterococcus faecalis. The format is cell-based. Particulars: ATCC29212, Table XIV A. Gram-positive bacteria, read-out: E. faecalis ATCC 29212 MIC.
Assay [16] concerns N. gonorrhoeae ATCC 700825. Kind of assay: MIC, N. gonorrhoeae ATCC 700825. Type of assay: cell-based. Particulars: Neisseria gonorrhoeae, ATCC700825; Table XIV B. Gram-negative bacteria.
The subject of assay [17] is Pseudomonas aeruginosa (ATCC27853). Kind of assay: MIC, broth microdilution (CLSI), Pseudomonas aeruginosa. The conditions noted are these: ATCC27853, Table XIV B. Gram-negative bacteria, read-out: P. aeruginosa ATCC 27853 MIC. The format is cell-based.
Assay [18] has as its system M. fortuitum ATCC 110. Kind of assay: MIC, M. fortuitum ATCC 110. Type of assay: cell-based. Particulars: Mycolicibacterium fortuitum, ATCC110; Table XIV A. Gram-positive bacteria.
For assay [19], the system named is E. coli RNase P RNA, M1 RNA. Description: Initial screening for inhibition of RNase P activity (normalised cleavage of pATSerUG at maximum compound concentration). Type of assay: biochemical. Particulars: normalised cleavage (cleavage with compound / without compound) at maximum compound concentration.
[20] abbreviates: ATCC29213, Table XIV A. Gram-positive bacteria.
The mark [21] stands for this setting: ATCC25922, read-out: E. coli ATCC 25922 MIC, Table XIV B. Gram-negative bacteria.
Setting [22] is: ATCC25922, read-out: E. coli ATCC 25922 MIC, Table XIII.

Molecules are shown by their SMILES. pIC50: −log10 of the molar value. Counter-ions that a name gives are not always drawn. Like-named read-outs stand apart in the source and are kept apart here.

One may read the pIC50 as the IC50 on a negative log10 scale, so that one unit is a factor of ten. As to `N[C@H]1CC[C@H](NC2CCC(c3cn(CC4CCCCC4)c4ccc(Br)cc34)CC2)CC1` (single isomer, unassigned) [Compound 266, (1r,4r)-N1-(4-(5-bromo-1-(cyclohexylmethyl)-1H-indol-3-yl)cyclohexyl)cyclohexane-1,4-diamine hydrochloride salt], the negative logarithm of the IC50 (pIC50) in assay [1] (hydrochloride salt) is 5.07. The MIC in assay [2] amounted to 2 µg/mL; in [3], 4 µg/mL; in assay [4], 8 µg/mL; in assay [5] (ATCC29213, Table XIII) it was 2 µg/mL; in assay [5] (setting [20]), 4 µg/mL; in assay [6] it was 16 µg/mL. Besides, the MIC was found to be 4 µg/mL in assay [7]; 2 µg/mL in assay [8]; 4 µg/mL in [9]; 2 µg/mL in [10]; 4 µg/mL in assay [11] (setting [21]); 8 µg/mL in [13]. The MIC in [14] stood at 2 µg/mL; in [15] it was 2 µg/mL; in [16], 2 µg/mL; in [17], 8 µg/mL; in [18] it was 2 µg/mL. In addition, the “E. coli ATCC 25922 MIC” value in [11] (Table XIII) was found to be 2 µg/mL. Further, the “S. aureus ATCC 25923 MIC” value in assay [12] (Table XIII) is 2 µg/mL.

Regarding `Cl.c1ccc2c(CCNCc3c[nH]cn3)c[nH]c2c1` [Compound 9, N-((1H-imidazol-4-yl)methyl)-2-(1H-indol-3-yl)ethan-1-amine hydrochloride salt], the “Initial screening of RNase P Inhibition” value in assay [19] is 0.91.

On to `Cl.Fc1ccc(CN(CCc2c[nH]c3ccccc23)Cc2ncc[nH]2)cc1` [Compound 10, N-((1H-imidazol-2-yl)methyl)-N-(4-fluorobenzyl)-2-(1H-indol-3-yl)ethan-1-amine hydrochloride salt], for which the “Initial screening of RNase P Inhibition” value in [19] came out at 0.95.

Turning to `COc1ccc(CNCCc2c[nH]c3ccccc23)cc1.Cl` [Compound 11, 2-(1H-indol-3-yl)-N-(4-methoxybenzyl)ethan-1-amine hydrochloride salt], the “Initial screening of RNase P Inhibition” value in assay [19] amounted to 0.72.

For `Brc1cccc(CNCCc2c[nH]c3ccccc23)n1.Cl` [Compound 12, N-((6-bromopyridin-2-yl)methyl)-2-(1H-indol-3-yl)ethan-1-amine hydrochloride salt], in assay [19], the “Initial screening of RNase P Inhibition” value is 0.84.

With `Brc1cccc(CNCCc2c[nH]c3ccccc23)c1.Cl` [Compound 13, N-(3-bromobenzyl)-2-(1H-indol-3-yl)ethan-1-amine hydrochloride salt], the “Initial screening of RNase P Inhibition” value in assay [19] is 0.97.

Turning to `Cl.c1c[nH]c(CNCCc2c[nH]c3ccccc23)c1` [Compound 14, N-((1H-pyrrol-2-yl)methyl)-2-(1H-indol-3-yl)ethan-1-amine hydrochloride salt], in assay [19], the “Initial screening of RNase P Inhibition” value was 0.78.

Take `Cc1ccc(CN(CCc2c[nH]c3ccccc23)C(=O)CNCc2ccc(F)cc2)cc1.Cl` [Compound 15, N-(2-(1H-indol-3-yl)ethyl)-2-((4-fluorobenzyl)amino)-N-(4-methylbenzyl)acetamide hydrochloride salt]: the “Initial screening of RNase P Inhibition” value in assay [19] worked out at 1.10.

As for `Cl.c1ccc2c(CCNCc3cncs3)c[nH]c2c1` [Compound 16, 2-(1H-indol-3-yl)-N-(thiazol-5-ylmethyl) ethan-1-amine hydrochloride salt], the “Initial screening of RNase P Inhibition” value in [19] is listed as 0.88.

`Cl.c1cc(CNCCc2c[nH]c3ccccc23)nc(N2CCCCC2)c1` [Compound 17, 2-(1H-indol-3-yl)-N-((6-(piperidin-1-yl)pyridin-2-yl)methyl)ethan-1-amine hydrochloride salt]: in [19], the “Initial screening of RNase P Inhibition” value came out at 0.94.

On to `c1ccc2c(CCNCC3CCNCC3)c[nH]c2c1` [Compound 18, 2-(1H-indol-3-yl)-N-(piperidin-4-ylmethyl)ethan-1-amine hydrochloride salt], for which, in assay [19], the “Initial screening of RNase P Inhibition” value was 1.05.

`CCn1cc(C(CC(=O)NCCC2CCNCC2)c2cccc(C)c2)c2ccccc21.Cl` (centres unmarked) [Compound 84, 3-(1-ethyl-1H-indol-3-yl)-N-(2-(piperidin-4-yl)ethyl)-3-(m-tolyl)propanamide hydrochloride salt] gave a negative logarithm of the IC50 (pIC50) in [1] of 3.08. For the same compound, the “Initial screening of RNase P Inhibition” value in assay [19] is reported as 0.32.

Consider `Cc1cccc(C(CC(=O)NCCC2CCNCC2)c2cn(Cc3ccccc3)c3cccnc23)c1.Cl` (centres unmarked) [Compound 85, 3-(1-benzyl-1H-pyrrolo[3,2-b]pyridin-3-yl)-N-(2-(piperidin-4-yl)ethyl)-3-(m-tolyl)propanamide hydrochloride salt], for which, in [1], the pIC50 is 3.09. For the same compound, the “Initial screening of RNase P Inhibition” value in assay [19] is listed as 0.20.

Turning to `Cc1cccc(C(CC(=O)NCCC2CCNCC2)c2cn(Cc3ccccc3)c3ccccc23)c1.Cl` (centres unmarked) [Compound 86, 3-(1-benzyl-1H-indol-3-yl)-N-(2-(piperidin-4-yl)ethyl)-3-(m-tolyl)propanamide hydrochloride salt], the negative logarithm of the IC50 (pIC50) in [1] (hydrochloride salt) is 3.62. The “Initial screening of RNase P Inhibition” value in assay [19] (hydrochloride salt) was found to be 0.78.

For the compound `Cc1cccc(C(CC(=O)NCCC2CCNCC2)c2cn(Cc3ccccc3)c3ccccc23)c1.Cl` (centres unmarked) [Compound 87, 3-(1-benzyl-1H-indol-3-yl)-N-(2-(piperidin-4-yl)ethyl)-3-(m-tolyl) propanamide hydrochloride salt], the negative logarithm of the IC50 (pIC50) in [1] (hydrochloride salt) was 3.81. For the same compound, the “Initial screening of RNase P Inhibition” value in assay [19] (hydrochloride salt) came out at 0.30.

The compound `Cc1cccc(C(CCNC2CCNCC2)c2cn(CC3CCCCC3)c3ccccc23)c1.Cl` (centres unmarked) [Compound 122, N-(3-(1-(cyclohexylmethyl)-1H-indol-3-yl)-3-(m-tolyl)propyl)piperidin-4-amine hydrochloride salt] had a negative logarithm of the IC50 (pIC50) in assay [1] of 5.40. Moreover, the MIC turned out to be 4 µg/mL in assay [3]; 8 µg/mL in assay [4]; 8 µg/mL in assay [5] (ATCC29213, Table XIII); 4 µg/mL in assay [5] (setting [20]); 16 µg/mL in [6]; 4 µg/mL in assay [7]. Moreover, the MIC was 4 µg/mL in assay [8]; 4 µg/mL in assay [9]; 2 µg/mL in assay [10]; 4 µg/mL in assay [11] (setting [22]); 4 µg/mL in assay [11] (setting [21]); 2 µg/mL in assay [12]. Besides, the MIC in assay [13] was found to be 8 µg/mL; in [14], 2 µg/mL; in assay [15], 4 µg/mL; in [16] it was 2 µg/mL; in assay [17], 16 µg/mL; in assay [18], 2 µg/mL.

`NC1CCC(NCCC(c2cccc(OC(F)(F)F)c2)c2cn(CC3CCCCC3)c3ccccc23)CC1` [Compound 173, (1S,4S)-N1-(3-(1-(cyclohexylmethyl)-1H-indol-3-yl)-3-(3-(trifluoromethoxy)phenyl)propyl)cyclohexane-1,4-diamine hydrochloride salt] showed a negative-log IC50 (pIC50) in assay [1] of 5.52. Further, the MIC is 2 µg/mL in assay [2]; 4 µg/mL in assay [3]; 4 µg/mL in assay [4]; 2 µg/mL in assay [5] (ATCC29213, Table XIII); 2 µg/mL in assay [5] (setting [20]); 16 µg/mL in assay [6]. The MIC in [7] was determined as 4 µg/mL; in assay [8] it was 2 µg/mL; in assay [9], 4 µg/mL; in [10] it was 1 µg/mL; in assay [11] (setting [22]), 4 µg/mL; in assay [11] (setting [21]), 4 µg/mL. For the same compound, the MIC in [12] worked out at 2 µg/mL; in assay [13], 8 µg/mL; in [14] it was 2 µg/mL; in assay [15], 2 µg/mL; in assay [16], 2 µg/mL; in assay [17], 16 µg/mL. The MIC in [18] amounted to 2 µg/mL.
